Results taken from ChEMBL document CHEMBL1201862, “PubChem BioAssay data set” (2004).
The source made the active and inactive calls.

Tests used:
[1] = Luminescence Cell-Based Dose Response HTS to Identify Activators of Luciferase Translation or Activity in H4 […] Cells. [Related pubchem assays: 1829 (Project Summary), 1814 (Primary HTS)]; format: functional
[2] = target: Cyclin-dependent kinase 5/CDK5 activator 1 (Homo sapiens, UniProt Q00535); experiment: CDK5/p35 kinase inhibitors, dose response, biochemical, cherry-picked samples, set 2 (AID 504545)
Cyclin-dependent kinase 5/CDK5 activator 1, sequence (Q00535 whole entry): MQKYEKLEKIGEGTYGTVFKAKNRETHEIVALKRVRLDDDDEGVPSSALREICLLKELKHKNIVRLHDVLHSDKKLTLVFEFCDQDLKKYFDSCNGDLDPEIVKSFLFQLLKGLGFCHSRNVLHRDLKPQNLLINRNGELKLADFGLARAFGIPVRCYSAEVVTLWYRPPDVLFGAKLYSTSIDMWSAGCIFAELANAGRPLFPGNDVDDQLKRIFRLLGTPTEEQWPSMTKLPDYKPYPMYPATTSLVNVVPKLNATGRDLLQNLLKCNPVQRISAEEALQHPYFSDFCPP
Cyclin-dependent kinase 5/CDK5 activator 1, sequence (Q15078 whole entry, further chain): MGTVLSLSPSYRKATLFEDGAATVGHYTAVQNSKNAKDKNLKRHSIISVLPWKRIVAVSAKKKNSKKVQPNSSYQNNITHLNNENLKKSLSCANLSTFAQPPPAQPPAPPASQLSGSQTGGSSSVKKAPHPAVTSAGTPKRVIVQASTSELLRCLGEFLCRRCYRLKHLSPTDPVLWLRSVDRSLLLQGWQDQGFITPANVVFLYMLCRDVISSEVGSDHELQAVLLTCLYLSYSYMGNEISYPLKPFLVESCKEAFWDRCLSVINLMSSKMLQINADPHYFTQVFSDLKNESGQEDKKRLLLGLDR

[3] = Luminescence Cell-Based Dose Retest to Confirm Inhibitors of Cancer Stem Cells. [Related pubchem assays (depositor defined):AID2717, AID2721]; format: functional; conditions: Homo sapiens
X-box-binding protein 1 = X-box-binding protein 1 (Homo sapiens, UniProt P17861); format: functional, Cricetulus griseus;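 further: confirmatory dose-response counter-screen serving a CHOP assay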
X-box-binding protein 1, sequence (P17861 whole entry): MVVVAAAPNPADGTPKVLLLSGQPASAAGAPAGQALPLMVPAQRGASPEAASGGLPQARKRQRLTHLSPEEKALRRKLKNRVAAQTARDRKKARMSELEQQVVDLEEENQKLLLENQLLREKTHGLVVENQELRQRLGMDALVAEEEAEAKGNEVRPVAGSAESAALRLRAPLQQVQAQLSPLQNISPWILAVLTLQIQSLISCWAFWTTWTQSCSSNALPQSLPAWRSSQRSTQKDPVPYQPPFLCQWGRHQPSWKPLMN

Tumor necrosis factor = Tumor necrosis factor (Homo sapiens, UniProt P01375); experiment: TNFa-triggered NF-kB activation inhibitors, SAR follow-up, cell-based, revised (AID 2337); format: functional
Tumor necrosis factor, sequence (P01375 whole entry): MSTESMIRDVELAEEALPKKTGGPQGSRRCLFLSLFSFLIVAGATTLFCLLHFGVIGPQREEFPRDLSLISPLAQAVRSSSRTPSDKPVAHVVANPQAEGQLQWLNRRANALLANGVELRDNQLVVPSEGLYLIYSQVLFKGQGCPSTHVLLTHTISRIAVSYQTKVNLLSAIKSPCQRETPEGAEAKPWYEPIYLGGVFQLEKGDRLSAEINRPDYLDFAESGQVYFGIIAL

[4] = target: T1, Corticotropin-releasing factor receptor 2/Corticotropin-releasing factor-binding protein (Homo sapiens, UniProt P24387+Q13324); experiment: Dose Response confirmation of uHTS hits for small molecule antagonists of the CRF-binding protein and CRF-R2 receptor complex.; format: functional; conditions: read-out: IC50_Mean
T1 sequence (Q13324 whole entry): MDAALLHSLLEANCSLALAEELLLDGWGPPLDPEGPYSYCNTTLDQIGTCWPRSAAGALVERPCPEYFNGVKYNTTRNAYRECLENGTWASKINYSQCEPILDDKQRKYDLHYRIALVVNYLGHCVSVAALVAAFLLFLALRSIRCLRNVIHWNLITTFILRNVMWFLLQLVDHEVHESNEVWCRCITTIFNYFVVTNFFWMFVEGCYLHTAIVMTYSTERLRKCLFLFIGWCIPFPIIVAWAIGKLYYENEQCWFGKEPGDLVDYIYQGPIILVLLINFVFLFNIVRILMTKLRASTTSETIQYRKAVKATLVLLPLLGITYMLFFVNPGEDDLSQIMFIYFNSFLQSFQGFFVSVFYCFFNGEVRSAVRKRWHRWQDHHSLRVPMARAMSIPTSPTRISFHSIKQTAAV
T1 sequence (P24387 whole entry): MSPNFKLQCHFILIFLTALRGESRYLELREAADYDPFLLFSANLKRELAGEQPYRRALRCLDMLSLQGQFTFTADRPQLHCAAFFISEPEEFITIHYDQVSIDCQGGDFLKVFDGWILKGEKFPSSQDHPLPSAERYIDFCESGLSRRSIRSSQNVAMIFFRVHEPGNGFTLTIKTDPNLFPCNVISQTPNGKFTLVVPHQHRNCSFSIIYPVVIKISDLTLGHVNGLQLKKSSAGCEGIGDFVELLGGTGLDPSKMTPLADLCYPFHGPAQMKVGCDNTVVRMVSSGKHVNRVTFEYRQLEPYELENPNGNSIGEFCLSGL

[5] = target: T2, Nucleotide-binding oligomerization domain-containing protein 1 (Homo sapiens, UniProt Q9Y239); experiment: NOD1 signaling inhibitors, SAR follow-up, revised (AID 2333); format: functional
T2 sequence (Q9Y239 whole entry): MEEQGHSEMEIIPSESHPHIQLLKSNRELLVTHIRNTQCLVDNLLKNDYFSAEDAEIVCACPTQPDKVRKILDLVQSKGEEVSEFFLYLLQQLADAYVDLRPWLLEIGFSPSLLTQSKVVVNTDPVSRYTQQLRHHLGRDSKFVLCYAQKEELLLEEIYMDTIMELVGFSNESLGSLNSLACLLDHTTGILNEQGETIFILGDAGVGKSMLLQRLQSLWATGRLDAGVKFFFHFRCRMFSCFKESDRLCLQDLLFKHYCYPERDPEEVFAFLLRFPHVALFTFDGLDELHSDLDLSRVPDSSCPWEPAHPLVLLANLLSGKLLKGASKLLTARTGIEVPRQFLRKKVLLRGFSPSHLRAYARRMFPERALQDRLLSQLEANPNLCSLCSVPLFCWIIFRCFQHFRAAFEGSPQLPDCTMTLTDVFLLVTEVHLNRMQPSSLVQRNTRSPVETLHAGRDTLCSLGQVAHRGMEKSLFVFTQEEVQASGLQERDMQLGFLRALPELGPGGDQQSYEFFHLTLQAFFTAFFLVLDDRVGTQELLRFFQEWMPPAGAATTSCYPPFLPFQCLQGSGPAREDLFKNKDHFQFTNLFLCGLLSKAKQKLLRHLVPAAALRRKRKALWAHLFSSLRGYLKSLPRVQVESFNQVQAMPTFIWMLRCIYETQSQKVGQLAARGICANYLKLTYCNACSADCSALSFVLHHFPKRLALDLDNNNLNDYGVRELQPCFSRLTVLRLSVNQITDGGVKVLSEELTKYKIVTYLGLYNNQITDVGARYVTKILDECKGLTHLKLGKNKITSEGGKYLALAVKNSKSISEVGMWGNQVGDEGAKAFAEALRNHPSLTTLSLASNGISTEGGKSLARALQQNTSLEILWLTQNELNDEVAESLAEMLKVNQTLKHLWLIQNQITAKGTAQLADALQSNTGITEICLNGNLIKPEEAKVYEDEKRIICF

[6] = target: Nucleotide-binding oligomerization domain-containing protein 2 (Homo sapiens, UniProt Q9HC29); experiment: PubChem AID 2334; format: functional
Nucleotide-binding oligomerization domain-containing protein 2, sequence (Q9HC29 whole entry, the tested form may be a part): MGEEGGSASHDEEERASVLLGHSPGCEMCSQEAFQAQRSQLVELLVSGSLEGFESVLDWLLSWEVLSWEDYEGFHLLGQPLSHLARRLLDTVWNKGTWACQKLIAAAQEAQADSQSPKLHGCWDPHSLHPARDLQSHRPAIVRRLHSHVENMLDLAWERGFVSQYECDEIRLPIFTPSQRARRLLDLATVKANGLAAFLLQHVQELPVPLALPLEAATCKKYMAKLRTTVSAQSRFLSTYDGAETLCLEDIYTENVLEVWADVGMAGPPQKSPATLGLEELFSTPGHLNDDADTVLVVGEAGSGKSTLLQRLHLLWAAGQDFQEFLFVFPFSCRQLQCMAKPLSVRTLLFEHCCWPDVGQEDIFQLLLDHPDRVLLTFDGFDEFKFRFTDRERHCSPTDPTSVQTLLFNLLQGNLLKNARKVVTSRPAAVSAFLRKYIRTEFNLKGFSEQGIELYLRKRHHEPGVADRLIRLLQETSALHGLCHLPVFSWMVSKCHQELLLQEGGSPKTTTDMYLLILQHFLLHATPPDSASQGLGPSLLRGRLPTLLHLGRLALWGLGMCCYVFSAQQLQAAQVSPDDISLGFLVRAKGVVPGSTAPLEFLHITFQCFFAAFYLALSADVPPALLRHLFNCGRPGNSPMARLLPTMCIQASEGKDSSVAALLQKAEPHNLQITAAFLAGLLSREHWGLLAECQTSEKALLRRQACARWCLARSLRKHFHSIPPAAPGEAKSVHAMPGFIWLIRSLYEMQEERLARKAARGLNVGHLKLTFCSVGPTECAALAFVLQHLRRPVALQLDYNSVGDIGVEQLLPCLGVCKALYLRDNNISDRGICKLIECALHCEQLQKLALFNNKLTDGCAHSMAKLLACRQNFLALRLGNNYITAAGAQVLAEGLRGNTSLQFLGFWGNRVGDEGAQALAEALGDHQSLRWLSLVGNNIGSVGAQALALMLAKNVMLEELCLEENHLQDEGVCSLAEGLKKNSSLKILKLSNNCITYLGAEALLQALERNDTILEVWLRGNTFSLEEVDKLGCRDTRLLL

Streptokinase A = target: T3, Streptokinase A (Streptococcus pyogenes serotype M1, UniProt P10520); experiment: S. pyogenes streptokinase expression inhibitors, potency, dose response, plasminogen activation absorbance, OD405 (AID 1914); format: functional, Streptococcus pyogenes M1 GAS;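 further: secreted streptokinase activity via plasminogen activation per viability signal from cell pellet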
T3 sequence (P10520 whole entry): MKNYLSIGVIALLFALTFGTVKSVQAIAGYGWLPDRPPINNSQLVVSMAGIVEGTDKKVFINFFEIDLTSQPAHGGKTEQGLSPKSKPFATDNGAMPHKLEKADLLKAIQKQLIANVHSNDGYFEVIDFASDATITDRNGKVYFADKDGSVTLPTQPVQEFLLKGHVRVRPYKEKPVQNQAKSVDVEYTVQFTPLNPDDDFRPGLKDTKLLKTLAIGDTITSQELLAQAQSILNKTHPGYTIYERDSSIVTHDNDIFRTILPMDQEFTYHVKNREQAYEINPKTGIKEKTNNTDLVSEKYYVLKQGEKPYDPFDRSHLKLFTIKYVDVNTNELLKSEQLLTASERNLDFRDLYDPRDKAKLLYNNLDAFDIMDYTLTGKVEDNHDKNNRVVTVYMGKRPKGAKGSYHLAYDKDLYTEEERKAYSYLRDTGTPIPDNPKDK

[7] = target: T1, Corticotropin-releasing factor receptor 2/Corticotropin-releasing factor-binding protein; experiment: activators of CRF receptor 2 with binding protein – uHTS hits, confirmation (AID 602473); format: functional; conditions: read-out: EC50_Mean
[8] = target: Neuropeptides B/W receptor type 1 (Homo sapiens, UniProt P48145); experiment: Fluorescence-based dose response cell-based high throughput screening assay to identify antagonists of the G-protein coupled receptor 7 (GPR7). [Related pubchem assays: 1952 (Screening assay (GPR7 antagonists).), 1880 (Summary AID.)]; format: functional
Neuropeptides B/W receptor type 1, sequence (P48145 whole entry): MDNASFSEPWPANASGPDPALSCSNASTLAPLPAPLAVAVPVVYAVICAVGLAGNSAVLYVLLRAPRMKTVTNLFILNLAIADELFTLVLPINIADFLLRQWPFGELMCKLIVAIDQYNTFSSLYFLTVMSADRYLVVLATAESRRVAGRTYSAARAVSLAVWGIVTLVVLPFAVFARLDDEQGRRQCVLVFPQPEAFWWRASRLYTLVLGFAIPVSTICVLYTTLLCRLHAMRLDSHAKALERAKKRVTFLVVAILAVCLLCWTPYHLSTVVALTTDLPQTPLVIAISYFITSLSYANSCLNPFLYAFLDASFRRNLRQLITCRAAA

[9] = target: Melanin-concentrating hormone receptor 1 (Homo sapiens, UniProt Q99705); experiment: Fluorescence-based counterscreen for antagonists of the G-protein coupled receptor 7 (GPR7): cell-based high throughput dose response assay to identify antagonists of the melanin-concentrating hormone receptor 1 (MCHR1).; format: functional
Melanin-concentrating hormone receptor 1, sequence (Q99705 whole entry): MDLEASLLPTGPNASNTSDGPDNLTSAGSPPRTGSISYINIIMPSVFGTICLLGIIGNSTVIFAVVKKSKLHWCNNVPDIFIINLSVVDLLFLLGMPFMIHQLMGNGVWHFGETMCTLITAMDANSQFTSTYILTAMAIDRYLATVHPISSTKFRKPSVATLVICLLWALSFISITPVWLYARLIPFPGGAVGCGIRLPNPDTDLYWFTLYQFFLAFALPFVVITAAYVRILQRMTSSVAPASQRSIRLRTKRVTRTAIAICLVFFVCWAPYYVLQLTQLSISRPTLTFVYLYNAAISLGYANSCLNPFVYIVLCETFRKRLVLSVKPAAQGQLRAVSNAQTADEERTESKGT

cells [10] = format: functional, cell-based
cells [11] = format: functional
[12] = inhibitors of SNCA 5'UTR-driven reporter translation, confirmation, H4 neuroglioma cells, luminescence (AID 1988); format: functional, cell-based
[13] = test system: Streptococcus sp. 'group A'; experiment: growth inhibition of control SK(-) GAS strain, dose response, counter-screen for streptokinase expression inhibitor project, luminescence, kanamycin, BacTiterGlo, confirmation (AID 1900); format: functional, organism-based
[14] = THP-1 cell cytotoxicity, dose response, cytotoxicity control for non-replicating M. tuberculosis project (AID 489025); format: functional
[15] = target: T4, DNA repair and recombination protein RAD54-like (Homo sapiens, UniProt Q92698); experiment: inhibitors of human RAD54 branch migration, confirmation, biochemical, fluorescence, cherry-picked samples, dose series (AID 651657); format: functional
T4 sequence (Q92698 whole entry): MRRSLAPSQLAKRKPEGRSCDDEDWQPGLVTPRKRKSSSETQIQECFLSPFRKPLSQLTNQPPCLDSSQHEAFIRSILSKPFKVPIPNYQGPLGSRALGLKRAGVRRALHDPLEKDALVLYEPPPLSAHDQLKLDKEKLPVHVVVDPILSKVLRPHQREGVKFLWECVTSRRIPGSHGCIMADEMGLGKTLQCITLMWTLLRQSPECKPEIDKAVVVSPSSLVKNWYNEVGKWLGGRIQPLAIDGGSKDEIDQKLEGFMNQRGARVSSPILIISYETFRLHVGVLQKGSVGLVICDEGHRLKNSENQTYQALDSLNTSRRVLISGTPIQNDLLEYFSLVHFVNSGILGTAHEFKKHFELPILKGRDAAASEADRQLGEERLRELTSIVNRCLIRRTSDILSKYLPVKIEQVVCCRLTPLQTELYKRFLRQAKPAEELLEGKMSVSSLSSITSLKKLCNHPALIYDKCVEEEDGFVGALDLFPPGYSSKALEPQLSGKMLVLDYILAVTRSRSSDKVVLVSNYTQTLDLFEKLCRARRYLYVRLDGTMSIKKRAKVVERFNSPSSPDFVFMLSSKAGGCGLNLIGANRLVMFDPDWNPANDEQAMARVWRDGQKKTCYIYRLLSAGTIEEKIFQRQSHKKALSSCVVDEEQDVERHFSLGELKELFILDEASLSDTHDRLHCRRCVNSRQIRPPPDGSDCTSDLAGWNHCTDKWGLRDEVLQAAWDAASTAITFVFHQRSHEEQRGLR

[16] = target: T5, Heat shock factor protein 1 (Mus musculus, UniProt P38532); experiment: HSF1 potentiators in luciferase reporter cells, confirmation, cell-based, NIH3T3, luminescence, dose retest (AID 435004); format: functional;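 further: stress induced by proteasome inhibitor MG132 added 30 min after compound; luciferase reporter driven by HSF1 response element in NIH3T3 cells; actives raise luminescence as potentiators of the MG132 stress response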
T5 sequence (P38532 whole entry): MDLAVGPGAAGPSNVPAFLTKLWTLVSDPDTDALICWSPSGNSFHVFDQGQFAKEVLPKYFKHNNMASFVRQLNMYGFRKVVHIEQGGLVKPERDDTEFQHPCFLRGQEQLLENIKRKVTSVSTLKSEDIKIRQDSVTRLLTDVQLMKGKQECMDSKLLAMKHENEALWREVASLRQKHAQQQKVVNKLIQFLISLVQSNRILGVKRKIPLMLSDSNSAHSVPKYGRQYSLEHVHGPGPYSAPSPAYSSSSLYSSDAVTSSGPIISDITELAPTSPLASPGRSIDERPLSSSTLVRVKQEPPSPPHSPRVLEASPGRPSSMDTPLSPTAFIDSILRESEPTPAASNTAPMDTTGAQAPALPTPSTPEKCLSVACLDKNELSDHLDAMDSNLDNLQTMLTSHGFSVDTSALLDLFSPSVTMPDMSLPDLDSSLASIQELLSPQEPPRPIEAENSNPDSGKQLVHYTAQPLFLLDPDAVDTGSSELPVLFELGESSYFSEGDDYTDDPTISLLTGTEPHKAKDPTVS

[17] = Vero E6 cell cytotoxicity, dose response, cytotoxicity control for non-replicating M. tuberculosis project, secondary assay (AID 492998); format: functional, VeroE6; conditions: Vero C1008
[18] = cytotoxicity in HEK-293T cells, dose response, cytotoxicity control for TCR NF-kB inhibitor project, luminescence, T-cell screen hits (AID 489026); format: functional, cell-based;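 further: cells exposed to compound about 14 hours before the viability readout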
Streptococcus = experiment: Group A Streptococcus viability loss, dose response, counter-screen for streptokinase expression inhibitor project, luminescence, BacTiterGlo (AID 1915); format: functional, organism-based;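 further: potency for reduction of bacterial viability or growth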
[19] = inhibitors of firefly luciferase expression or activity, dose response, H4 neuroglioma cells, luminescence (AID 1990); format: functional, cell-based
[20] = HepG2 cell cytotoxicity, dose response, cytotoxicity control for non-replicating M. tuberculosis project (AID 489018); format: functional; conditions: Mycobacterium tuberculosis
[21] = inhibitors of SNCA 5'UTR-driven translation, confirmation, luminescence, H4 neuroglioblastoma cells, dose confirmation (AID 2454); format: functional, cell-based;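 further: H4 neuroglioblastoma cells carrying an alpha-synuclein 5'UTR luciferase reporter; potency for inhibition of the luciferase signal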
[22] = luciferase reporter signal reduction – luminescence, H4-C neuroglioblastoma cells, dose response (AID 2458); format: functional, cell-based;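 further: H4 neuroglioblastoma cells stably carrying a luciferase reporter gene fusion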
[23] = target: DNA dC->dU-editing enzyme APOBEC-3G (Homo sapiens, UniProt Q9HC16); experiment: Dose Response confirmation of small molecule APOBEC3G DNA Deaminase Inhibitors via a fluorescence-based single-stranded DNA deaminase assay. [Related pubchem assays (depositor defined):AID493012, AID493028]; format: functional
DNA dC->dU-editing enzyme APOBEC-3G, sequence (Q9HC16 whole entry): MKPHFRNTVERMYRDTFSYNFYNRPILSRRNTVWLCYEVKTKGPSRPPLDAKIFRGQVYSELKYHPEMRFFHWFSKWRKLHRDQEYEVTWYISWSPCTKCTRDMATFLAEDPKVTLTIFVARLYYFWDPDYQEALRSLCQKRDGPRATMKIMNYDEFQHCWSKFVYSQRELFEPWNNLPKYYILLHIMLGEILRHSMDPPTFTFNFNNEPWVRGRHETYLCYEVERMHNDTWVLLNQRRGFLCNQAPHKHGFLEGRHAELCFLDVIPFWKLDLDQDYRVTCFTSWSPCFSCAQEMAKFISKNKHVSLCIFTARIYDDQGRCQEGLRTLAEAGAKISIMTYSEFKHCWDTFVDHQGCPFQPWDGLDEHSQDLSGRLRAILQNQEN

With Nc1nc(Nc2ccccc2F)sc1C(=O)c1ccccc1 the EC50 [1] was 159 nM (active) and the AC50 [2] was 60 µM (active).
With Cc1[nH]c2ccccc2c1/C=N/NC(=O)C1CC1(c1ccccc1)c1ccccc1 (stereo not drawn) the AC50 [3] was 3.79 µM (active) and the “Absolute IC50 (XBP1)” value (X-box-binding protein 1) was 10 µM.
With Cc1cccc(Nc2nc(N)c([N+](=O)[O-])c(NCCO)n2)c1 the AC50 [2] was 15.2 µM (active).
With Cc1ccc(SCc2cc(=O)[nH]c(SCC(=O)Nc3cc(Cl)ccc3Cl)n2)cc1 the IC50 (Tumor necrosis factor) was 8.65 µM (active), the IC50 [4] was 5.65 µM (active) and the IC50 [5] was 7.37 µM (active). The IC50 [6] was 9.95 µM (active), the EC50 (Streptokinase A) was 42.6 µM (inconclusive) and the EC50 [7] was > 53 µM (inactive).
In the case of O=C(NC1CCCCCCC1)C1c2ccccc2C(=O)N1Cc1cccs1 (stereo not drawn), the IC50 [8] is reported as > 43.8 µM (not active) and the IC50 [9] is reported as 15.9 µM (not active).
In the case of COC(=O)c1c(NC(=O)c2ccc([N+](=O)[O-])o2)sc2c1CCN(C(C)C)C2, the EC50 (cells [10]) is reported as 11.8 µM (active), the IC50 (cells [11]) is reported as 650 nM (active) and the EC50 [12] is reported as < 100 nM (active). The EC50 [13] was 4.11 µM (active), the CC50 [14] was 1.5 µM (active) and the AC50 [15] was 43.4 µM (active). The EC50 [16] was 26 µM (active), the CC50 [17] was 370 nM (active) and the IC50 [18] was > 80 µM (inactive). The EC50 (Streptococcus) was 7.32 µM (active), the EC50 [19] was > 120 µM (not active) and the CC50 [20] was 6.72 µM (active). The EC50 [21] was 1.52 µM (active) and the EC50 [22] was 1.29 µM (active).
With CC(=O)c1sc2nsc(SCCN3CCOCC3)c2c1N the IC50 [23] was 34.4 µM (active).
